# Results taken from patent publication US7037644B1, “Means and methods for monitoring non-nucleoside reverse transcriptase inhibitor antiretroviral therapy and guiding therapeutic decisions in the treatment of HIV/AIDS” (ViroLogic, Inc., priority 1998, dated 2006).
# Tested on: codon 181 mutant HIV-1
# Test: not given
# Details: cited from earlier work
row,Structure (SMILES),change in IC between wild-type and codon 181 mutant HIV-1
1,"CCc1cc(CCc2nc3c(Cl)ccc(Cl)c3o2)c(=S)[nH]c1C [L-702,019]",3 fold

# Tested on: RTV-268, patient 97-268 (RT M41L, D67N, M184V, L210W, T215Y, K219Q, P236L)
# Test: Phenotypic susceptibility assay (patient RTV)
# Assay type: cell-based, HIV-1
# Details: patient virus RTV-268 vs reference virus
# Source text: The resistance test vectors containing a functional luciferase gene cassette were constructed and host cells were transfected with the resistance test vector DNA. The resistant test vectors contained patient-derived reverse transcriptase and protease sequences that were either susceptible or resistant to the antiretroviral agents, such as nucleoside reverse transcriptase inhibitors, non-nucleoside reverse transcriptase inhibitors and protease inhibitors. The resistance test vector viral particles produced by transfecting the resistance test vector DNA into host cells, either in the presence or absence of protease inhibitors, were used to infect target host cells grown either in the absence of NRTI or NNRTI or in the presence of increasing concentrations of the drug. The amount of luciferase activity produced in infected target host cells in the presence of drug was compared to the amount of luciferase produced in infected target host cells in the absence of drug. Drug resistance was measured as the amount of drug required to inhibit by 50% the luciferase activity detected in the absence of drug (inhibitory concentration 50%, IC50). The IC50 values were determined by plotting percent drug inhibition vs. log10 drug concentration.
# Host cells were seeded in 10-cm-diameter dishes and were transfected several days after plating with resistance test vector plasmid DNA and the envelope expression vector. Transfections were performed using a calcium-phosphate precipitation procedure. The cell culture media containing the DNA precipitate was replaced with fresh medium, from one to 24 hours, after transfection. Cell culture media containing resistance test vector viral particles was harvested one to four days after transfection and was passed through a […] filter before being stored at […]. HIV capsid protein (p24) levels in the harvested cell culture media were determined by an EIA method as described by the manufacturer (SIAC; Frederick, Md.). Before infection, target cells (293 and 293/T) were plated in cell culture media. Control infections were performed using cell culture media from mock transfections (no DNA) or transfections containing the resistance test vector plasmid DNA without the envelope expression plasmid. One to three or more days after infection the media was removed and cell lysis buffer (Promega) was added to each well. Cell lysates were assayed for luciferase activity (FIG. 3). The inhibitory effect of the drug was determined using the following equation: % luciferase inhibition=1−(RLUluc [drug]÷RLUluc)×100 where RLUluc [drug] is the relative light unit of luciferase activity in infected cells in the presence of drug and RLUluc is the Relative Light Unit of luciferase activity in infected cells in the absence of drug. IC50 values were obtained from the sigmoidal curves that were generated from the data by plotting the percent inhibition of luciferase activity vs. the log10 drug concentration. The drug inhibition curves are shown in (FIG. 3).
# A resistance test vector was constructed as described in Example 1 from a patient sample designated 97-268. This patient had been treated with AZT and 3TC (NRTIs), indinavir and saquinavir (PRIs) and delavirdine (an NNRTI) for periods varying from 1 month to 2 years. Isolation of viral RNA and RT/PCR was used to generate a patient derived segment that comprised viral sequences coding for all of PR and amino acids 1-313 of RT. The patient derived segment was inserted into a indicator gene viral vector to generate a resistance test vector designated RTV-268. RTV-268 was then tested using the phenotypic susceptibility assay to determine accurately and quantitatively the level of susceptibility to a panel of anti-retroviral drugs. This panel of anti-retroviral drugs comprised members of the classes known as NRTIs (AZT, 3TC, d4T, ddI and ddC), NNRTIs (delavirdine and nevirapine), and PRIs (indinavir, nelfinavir, ritonavir, and saquinavir). An IC50 was determined for each drug tested. […]
row,Structure (SMILES),change in susceptibility
1,Nc1ccn([C@@H]2CS[C@H](CO)O2)c(=O)n1 [3TC],significant resistance
2,Cc1cn([C@H]2C[C@H](N=[N+]=[N-])[C@@H](CO)O2)c(=O)[nH]c1=O [AZT],significant resistance
3,Cc1cn([C@H]2C=C[C@@H](CO)O2)c(=O)[nH]c1=O [d4T],slight shifts in susceptibility
4,Nc1ccn([C@H]2CC[C@@H](CO)O2)c(=O)n1 [ddC],slight shifts in susceptibility
5,O=c1[nH]cnc2c1ncn2[C@H]1CC[C@@H](CO)O1 [ddI],slight shifts in susceptibility
